Where two headings read alike, the source gives them in different places.
What was measured:
[1] = tested on: 5HT2A; format: cell-based; conditions: result in words
[2] = tested on: Rat cortical neurons; assay: Neurite Outgrowth in Primary Neuronal Cultures Assay (Procedure B); format: cell-based; set-up: key: A: Statistically significant mean increase as a percent of DMSO control at 10 μM or less; B: No statistically significant mean increase as a percent of DMSO control at 10 μM or less; conditions: 72 h, percent of DMSO control at 10 μM or less
Description: Neurite Outgrowth in Primary Neuronal Cultures Assay (Procedure B). Changes in the pattern of neurite outgrowth have been implicated in psychiatric and neurodegenerative disorders as well as traumatic injuries. The discovery of new compounds that can positively affect neuritogenesis are important for developing new therapeutics for neurological diseases. Measurement of neurite outgrowth of rat cortical neurons using an automated image-based assay was used to determine the neuroplastic effects of the compounds of the present invention. The neurite outgrowth assay was performed at Neurofit SAS (France) as described below.
Pregnant Wistar rats (Janvier; France) were used for the study. They were delivered 6 days before their use. Upon arrival at Neurofit animal facility, they were housed one per cage and maintained in a room with controlled temperature (21-22° C.) and a reversed light-dark cycle (12 h/12 h; lights on: 17:30-05:30; lights off: 05:30-17:30) with food and water available ad libitum.
Female Wistar rats of 17 days gestation were killed by cervical dislocation and the fetuses were removed from the uterus. Their brains were placed in ice-cold medium of Leibovitz (L15, Gibco, Fisher bioblock, France). Cortices were dissected and meninges were carefully removed. The cortical neurons were dissociated by trypsinization for 30 min at 37° C. (trypsin-EDTA, Gibco) in presence of 0.1 mg/ml DNAse I (Roche, France). The reaction was stopped by addition of Dulbecco's Modified Eagle Medium (DMEM; Gibco) with 10% of fetal bovine serum (FBS; Gibco). The suspension was triturated with a 10-ml pipette and using a needle syringe 21G and centrifuged at 350×g for 10 min at room temperature. The pellet of dissociated cells was resuspended in a medium consisting of Neurobasal (Gibco) supplemented with 2% B27 supplement (Gibco), 0.5 mM L-Glutamine (Gibco), an antibiotic-antimicotic mixture. Viable cells were counted in a Neubauer cytometer using the trypan blue exclusion test (Sigma). Cells were seeded at a density of 10000 cells per well in 96-well plate (Costar) precoated with poly-L-lysine. Test compound at different concentrations were added to the cultures. Donepezil (positive control) was tested at 250 nM.
After 72 h (3 days) of plating, cultures were fixed with paraformaldehyde in PBS (4%, Sigma) for 30 min at 4° C. Then, cells were successively permeabilized with 0.1% Triton X100 for 30 min, saturated with PBS containing 3% of BSA and were incubated 1 h with anti-beta III tubulin antibody (Sigma) at 1/10 000 in PBS containing 0.5% of BSA. Cells were washed three times with PBS containing 0.5% of BSA, and they were incubated 1 h with goat anti-mouse antibody coupled with AF488 (Invitrogen A11001) diluted at 1/1000 in PBS containing 0.5% of BSA. Finally, nuclei were staining with DAPI 1 mg/ml at 1/1000 in PBS containing 0.5% of BSA. After rinsing with PBS, the plate was filmed and neurite networks were examined and analyzed using High-Content Screening (CellInsight, Thermo Scientific). The average number of neurites per neuron and the average total length of neurites per neuron were the main parameters analyzed. Analysis of data was performed using analysis of variance (ANOVA). The Fisher's Protected Least Significant Difference test was used for multiple comparisons. A p value<0.05 was considered significant. The software used is StatView 5.0 from SAS Institut.
In some embodiments, a compound of the present invention increases the pattern of neurite outgrowth. In some embodiments, a compound of the present invention increases neurite average length compared to a control. In some embodiments, a compound of the present invention increases neurite branch points compared to a control.

[3] = target: T1, 5HT2A (Homo sapiens, UniProt P28223); assay: Serotonin 5-HT2A in vitro radioligand binding competition assay ([3H]-DOI); set-up: purchased Epics Therapeutics S.A. (Belgium) FAST-0505B
Experimental: Serotonin 5-HT2A In Vitro Radioligand Binding Competition Assay. The 5-HT2A radioligand binding competition assay was performed at Epics Therapeutics S.A. (Belgium, FAST-0505B) using conventional methods. Briefly, competition binding is performed in duplicate in the wells of a 96 well plate (Master Block, Greiner, 786201) containing binding buffer (optimized for each receptor), membrane extracts (amount of protein/well optimized for each receptor), radiotracer [^3H]-DOI (final concentration optimized for each receptor) and test compound. Nonspecific binding is determined by co-incubation with 200-fold excess of cold competitor. The samples are incubated in a final volume of 0.1 ml at a temperature and for a duration optimized for each receptor and then filtered over filter plates. Filters are washed six times with 0.5 ml of ice-cold washing buffer (optimized for each receptor) and 50 μl of Microscint 20 (Packard) are added in each well. The plates are incubated 15 min on an orbital shaker and then counted with a TopCount™ for 1 min/well.
(§1) The compounds provided herein were tested in the Serotonin 5-HT2A and 5-HT2C in vitro radioligand binding and cellular IPOne agonism assays. The binding and agonism functional potencies of several compound provided herein compounds (as indicated by their IC50s or EC50s) are shown in Table 11.

[4] = target: T1, 5HT2A; assay: Serotonin 5-HT2A in vitro cellular IPOne agonism assay; format: cell-based; set-up: host or cells: CHO-K1
Experimental: Serotonin 5-HT2A In Vitro Cellular IPOne Agonism Assay. The 5-HT2A IPOne HTRF assay was performed at Epics Therapeutics S.A. (Belgium, FAST-0505I) using conventional methods. Briefly, CHO-K1 cells expressing human recombinant 5-HT2A receptor grown to mid-log phase in culture media without antibiotics were detached with PBS-EDTA, centrifuged, and resuspended in medium without antibiotics buffer. 20,000 cells are distributed in a 96 well plate and incubated overnight at 37° C. with 5% CO2.
For agonist testing, the medium is removed and 20 μl of assay buffer plus 20 μl of test compound or reference agonist are added in each well. The plate is incubated for 60 min. at 37° C. with 5% CO2.
After addition of the lysis buffer containing IP1-d2 and anti-IP1 cryptate detection reagents, plates are incubated 1-hour at room temperature, and fluorescence ratios are measured according to the manufacturer specification, with the HTRF kit.
as §1

[5] = [3H]-DOI competition, membrane extracts, read-out: 5-HT2A Radioligand Binding Activity
[6] = CHO-K1 cells, IPOne HTRF, read-out: 5-HT2A IPOne Agonism Activity

T1 sequence (P28223 whole entry): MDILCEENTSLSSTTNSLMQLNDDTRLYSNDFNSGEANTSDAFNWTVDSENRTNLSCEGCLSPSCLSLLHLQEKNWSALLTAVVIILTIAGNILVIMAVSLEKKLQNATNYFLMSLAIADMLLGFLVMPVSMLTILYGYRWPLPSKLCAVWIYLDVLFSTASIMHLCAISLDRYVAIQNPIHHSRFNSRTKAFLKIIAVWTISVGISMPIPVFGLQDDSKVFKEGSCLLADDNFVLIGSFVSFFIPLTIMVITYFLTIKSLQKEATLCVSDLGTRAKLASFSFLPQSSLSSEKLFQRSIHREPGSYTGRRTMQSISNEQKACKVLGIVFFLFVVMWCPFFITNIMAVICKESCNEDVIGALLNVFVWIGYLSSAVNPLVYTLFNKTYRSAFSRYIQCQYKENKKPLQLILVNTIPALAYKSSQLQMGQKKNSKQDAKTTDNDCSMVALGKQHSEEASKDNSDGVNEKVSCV

SMILES | activation of 5HT2A sensor assay in agonist mode [1] | Increase in Neurite Length [2] | Increase in Neurite Number [2] | IC50 [3, 5] | EC50 [4, 6] | IC50 [3] | EC50 [4]
CCN(CC)C(=O)[C@@H]1C=C2c3cccc4[nH]c(Br)c(c34)C[C@H]2N(C)C1 [BOL148] | do not activate the 5HT2A sensor assay in agonist mode |  |  |  |  |  | 
CN(C)CCc1c[nH]c2ccccc12 [DMT, N,N-dimethyltryptamine] | activate the 5HT2A sensor assay in agonist mode |  |  |  |  |  | 
COc1cc(CC(C)N)c(OC)cc1I (stereo not shown) [DOI] | activate the 5HT2A sensor assay in agonist mode |  |  |  |  |  | 
CCN(CC)CCc1c[nH]c2cc(F)ccc12 [Example 6-F-DET] | do not activate the 5HT2A sensor assay in agonist mode |  |  |  |  |  | 
COc1ccc2c(c1)CCCN2CCN(C)C [Example 9, 2-(6-methoxy-3,4-dihydroquinolin-1(2H)-yl)-N,N-dimethylethan-1-amine] |  | B | B | 0.101 to 1 µM | > 10 µM |  | 
COc1ccc2c(ccn2[C@H]2C[C@@H](N(C)C)C2)c1 [Example 24, (1s,3s)-3-(5-methoxy-1H-indol-1-yl)-N,N-dimethylcyclobutan-1-amine] |  | A | B | > 10 µM | > 10 µM |  | 
COc1ccc2c(ccn2[C@H]2C[C@H](N(C)C)C2)c1 [Example 25, (1r,3r)-3-(5-methoxy-1H-indol-1-yl)-N,N-dimethylcyclobutan-1-amine] |  | A | B | > 10 µM | > 10 µM |  | 
C[C@H](Cn1ccc2cncnc21)N(C)C [Example 27, (R)—N,N-dimethyl-1-(7H-pyrrolo[2,3-d]pyrimidin-7-yl)propan-2-amine] |  | A | B | > 10 µM | > 10 µM |  | 
COc1ccc2c(ccn2C[C@@H](C)N)n1 [Example 28, (R)-1-(5-methoxy-1H-pyrrolo[3,2-b]pyridin-1-yl)propan-2-amine] |  | A | B | > 10 µM | > 10 µM |  | 
CN[C@H](C)Cn1ccc2nc(OC)ccc21 [Example 29, (R)-1-(5-methoxy-1H-pyrrolo[3,2-b]pyridin-1-yl)-N-methylpropan-2-amine] |  | A | B | > 10 µM | > 10 µM |  | 
COc1ccc2c(ccn2C[C@@H](C)N(C)C)n1 [Example 30, (R)-1-(5-methoxy-1H-pyrrolo[3,2-b]pyridin-1-yl)-N,N-dimethylpropan-2-amine] |  | A | A | > 10 µM | > 10 µM |  | 
COc1cc2ccn(C[C@@H](C)N)c2cn1 [Example 31, (R)-1-(5-methoxy-1H-pyrrolo[2,3-c]pyridin-1-yl)propan-2-amine] |  | B | B | 1 to 10 µM | 1 to 10 µM |  | 
CN[C@H](C)Cn1ccc2cc(OC)ncc21 [Example 32, (R)-1-(5-methoxy-1H-pyrrolo[2,3-c]pyridin-1-yl)-N-methylpropan-2-amine] |  | B | B | > 10 µM | > 10 µM |  | 
COc1cc2ccn(C[C@@H](C)N(C)C)c2cn1 [Example 33, (R)-1-(5-methoxy-1H-pyrrolo[2,3-c]pyridin-1-yl)-N,N-dimethylpropan-2-amine] |  | A | B | > 10 µM | > 10 µM |  | 
COc1cnc2c(ccn2C[C@@H](C)N(C)C)c1 [Example 36, (R)-1-(5-methoxy-1H-pyrrolo[2,3-b]pyridin-1-yl)-N,N-dimethylpropan-2-amine] |  | B | B | > 10 µM | > 10 µM |  | 
C[C@H](Cn1ccc2cnccc21)N(C)C [Example 39, (R)—N,N-dimethyl-1-(1H-pyrrolo[3,2-c]pyridin-1-yl)propan-2-amine] |  | B | B | > 10 µM | > 10 µM |  | 
COc1ccc2c(ccn2C(=O)CN(C)C)c1 [Example 45, 2-(dimethylamino)-1-(5-methoxy-1H-indol-1-yl)ethan-1-one] |  | B | B | > 10 µM | > 10 µM |  | 
COc1ccc2c(ccn2C(=O)[C@@H](C)N(C)C)c1 [Example 47, (R)-2-(dimethylamino)-1-(5-methoxy-1H-indol-1-yl)propan-1-one] |  | B | B |  |  | > 10 µM | > 10 µM
O=C(c1ccc(F)cc1)C1CCN(CCn2c(=O)[nH]c3ccccc3c2=O)CC1 [Ketanserin] | do not activate the 5HT2A sensor assay in agonist mode |  |  |  |  |  | 
CNC(C)Cc1ccc2c(c1)OCO2 [L-MDMA] | do not activate the 5HT2A sensor assay in agonist mode |  |  |  |  |  | 
CCN(CC)C(=O)[C@@H]1C=C2c3cccc4[nH]cc(c34)C[C@H]2N(C)C1 [LSD] | activate the 5HT2A sensor assay in agonist mode |  |  |  |  |  | 
CN[C@H](C)Cc1ccc2c(c1)OCO2 [R-MDMA] | do not activate the 5HT2A sensor assay in agonist mode |  |  |  |  |  | 

Reference: patent publication US20230219969A1 (priority 2020, published 2023)
